Reference: US7977372B2, “Ortho aminoamides for the treatment of cancer” (Hoffmann-La Roche Inc., priority 2009, dated 2011)

Assays:
[1] = test system: SGC-7901 gastric cancer cells; assay: Growth inhibition of cancer cell lines (MTS / WST assay), SGC-7901; assay type: cell-based; conditions: for IC90: read-out: SGC GI90
Experimental: (§1) The novel compounds of the present invention were tested for their ability to inhibit growth of various cancer cell lines using in vitro growth inhibition assays described below.
(§2) Cells were seeded in 96-well culture plates (200 microliters/well at different seeding concentrations depending on cell type) and incubated overnight at 37 degrees Celsius in 5% CO2. After adding compound dilutions to the cells (DMSO concentration kept below 0.5%), the cells were incubated at 37 degrees Celsius in 5% CO2 for 72 hours. The effects on proliferation were determined by addition of MTS reagent (Promega) according to the manufacturer's instruction, followed by incubation for 2 hours at 37 degrees Celsius in 5% CO2, and finally recording the absorbance at 490 nm using an ELISA plate reader.
(§3) Similar to MTS assay except that the developer is the CCK-8 reagent (Dojindo) and the plate reader is set to 450 nm absorbance.
(§4) GI50 and GI90 values against SGC-7901 gastric cancer cells and SMMC-7721 liver cancer cells for specific representative compounds can be found in Table 19.

[2] = test system: SMMC-7721 liver cancer cells; assay: Growth inhibition of cancer cell lines (MTS / WST assay), SMMC-7721; assay type: cell-based; conditions: for IC90: read-out: SMMC GI90
Experimental: as §1, §2, §3, §4

[3] = test system: histone deacetylase (HeLa nuclear extract); assay: HeLa extract HDAC fluorometric assay; assay type: biochemical; conditions: compound at 30 micromolar; relative to SNDX-275
Experimental: Novel compounds were tested for their ability to inhibit histone deacetylase using an in vitro deacetylation assay. The enzyme source for this assay was HeLa nuclear extract. The substrate consisted of a commercial product containing an acetylated lysine side chain (both HeLa extract and substrate are available commercially from BIOMOL Research Laboratories, Inc., Plymouth Meeting, Pa.). After deacetylation of the substrate by incubation with HeLa nuclear extract, subsequent exposure to a developing reagent produces a fluorophore that is directly proportional to the level of deacetylation. Using the substrate concentration at the Km for the HeLa nuclear extract, the deacetylation assay was performed in the presence of novel compounds at 30 micromolar and the percent enzyme inhibition relative to a known reference HDAC inhibitor (SNDX-275) was determined. […] Inhibitory activity for specific representative compounds can be found in Table 19.

Structure (SMILES)	GI50 ([1]; Homo sapiens, SGC-7901, 72 h) [nM]	IC90 ([1]; Homo sapiens, SGC-7901, 72 h) [nM]	GI50 ([2]; Homo sapiens, SMMC-7721, 72 h) [nM]	IC90 ([2]; Homo sapiens, SMMC-7721, 72 h) [nM]	HD RP30 (relative inhibitory potency compared with SNDX-275) [3]	GI50 ([1]; 72 hours) [nM]	SGC GI90 ([1]; 72 hours) [nM]	GI50 ([2]; 72 hours) [nM]	SMMC GI90 ([2]; 72 hours) [nM]
CN1CC(C(=O)Nc2ccc(F)cc2)C(c2ccc(/C=C/C(=O)Nc3ccccc3N)cc2)C1 (racemic) [Example 5, rac-(trans-3,4)-4-{4-[2-(2-Amino-phenylcarbamoyl)-vinyl]-phenyl}-1-methyl-pyrrolidine-3-carboxylic acid (4-fluoro-phenyl)-amide]	390	1700	650	1950	1.61	–	–	–	–
Nc1ccccc1NC(=O)/C=C/c1ccc(C2CN(CCF)CC2C(=O)Nc2ccc(Cl)cc2)cc1 (racemic) [Example 21, rac-(trans-3,4)-4-{4-[2-(2-Amino-phenylcarbamoyl)-vinyl]-phenyl}-1-(2-fluoro-ethyl)-pyrrolidine-3-carboxylic acid (4-chloro-phenyl)-amide]	420	1380	910	2630	1.09	–	–	–	–
CC(C)(CO)N1CC(C(=O)Nc2ccc(Cl)cc2)C(c2ccc(/C=C/C(=O)Nc3ccccc3N)cc2)C1 (racemic) [Example 26, rac-(trans-3,4)-4-{4-[2-(2-Amino-phenylcarbamoyl)-vinyl]-phenyl}-1-(2-hydroxy-1,1-dimethyl-ethyl)-pyrrolidine-3-carboxylic acid (4-chloro-phenyl)-amide]	290	1040	640	1530	1.38	–	–	–	–
CC(C)(C)N1CC(C(=O)Nc2ccc(Cl)cc2)C(c2ccc(/C=C/C(=O)Nc3ccccc3N)cc2)C1 (racemic) [Example 36, rac-(trans-3,4)-4-{4-[2-(2-Amino-phenylcarbamoyl)-vinyl]-phenyl}-1-tert-butyl-pyrrolidine-3-carboxylic acid (4-chloro-phenyl)-amide]	490	1530	960	3290	1.75	–	–	–	–
CN1C[C@@H](C(=O)Nc2ccc(Cl)cc2)[C@H](c2ccc(/C=C/C(=O)Nc3ccccc3N)cc2)C1 [Example 5-2]	380	1130	660	1980	1.73	–	–	–	–
CN1C[C@@H](C(=O)Nc2ccc(F)cc2)[C@H](c2ccc(/C=C/C(=O)Nc3ccccc3N)cc2)C1 [Example 5-8]	310	1140	780	3960	1.95	–	–	–	–
Cc1ccc(NC(=O)C2CN(C)CC2c2ccc(/C=C/C(=O)Nc3ccccc3N)cc2)cc1 (stereo not shown) [Example 5-19]	490	1790	670	1750	1.63	–	–	–	–
CN1CC(C(=O)Nc2ccc(Br)cc2)C(c2ccc(/C=C/C(=O)Nc3ccccc3N)cc2)C1 (stereo not shown) [Example 5-20]	500	1300	770	1620	1.62	–	–	–	–
Cc1cc(NC(=O)C2CN(C)CC2c2ccc(/C=C/C(=O)Nc3ccccc3N)cc2)ccc1F (stereo not shown) [Example 5-27]	280	1120	570	1600	1.61	–	–	–	–
Cc1cccc(NC(=O)C2CN(C)CC2c2ccc(/C=C/C(=O)Nc3ccccc3N)cc2)c1 (stereo not shown) [Example 5-28]	310	1730	760	2010	1.70	–	–	–	–
Cc1cc(NC(=O)C2CN(C)CC2c2ccc(/C=C/C(=O)Nc3ccccc3N)cc2)ccc1Cl (stereo not shown) [Example 5-29]	320	1040	640	1390	1.65	–	–	–	–
CN1CC(C(=O)Nc2ccc(F)c(Cl)c2)C(c2ccc(/C=C/C(=O)Nc3ccccc3N)cc2)C1 (stereo not shown) [Example 5-30]	340	1560	710	2340	1.97	–	–	–	–
CN1CC(C(=O)Nc2ccccc2)C(c2ccc(/C=C/C(=O)Nc3ccccc3N)cc2)C1 (stereo not shown) [Example 5-32]	410	2040	710	2420	1.58	–	–	–	–
COc1ccc(NC(=O)C2CN(C)CC2c2ccc(/C=C/C(=O)Nc3ccccc3N)cc2)cc1 (stereo not shown) [Example 5-33]	420	1620	870	2210	1.49	–	–	–	–
CN1CC(c2ccc(/C=C/C(=O)Nc3ccccc3N)cc2)C(c2ncc(-c3ccccc3)[nH]2)C1 (stereo not shown) [Example 11-2]	420	1990	700	1690	1.64	–	–	–	–
CN1CC(c2ccc(/C=C/C(=O)Nc3ccccc3N)cc2)C(c2nc3ccccc3[nH]2)C1 (stereo not shown) [Example 11-3]	320	1620	680	2200	1.62	–	–	–	–
CN1CC(c2ccc(/C=C/C(=O)Nc3ccccc3N)cc2)C(c2nc3cc(Cl)ccc3[nH]2)C1 (stereo not shown) [Example 11-4]	370	1710	640	1810	1.70	–	–	–	–
CN1CC(c2ccc(/C=C/C(=O)Nc3ccccc3N)cc2)C(c2nc3cc(F)ccc3[nH]2)C1 (stereo not shown) [Example 11-6]	350	1080	920	3040	1.79	–	–	–	–

Continued, values first:

GI50 ([1]; Homo sapiens, SGC-7901, 72 h) [nM]	IC90 ([1]; Homo sapiens, SGC-7901, 72 h) [nM]	GI50 ([2]; Homo sapiens, SMMC-7721, 72 h) [nM]	IC90 ([2]; Homo sapiens, SMMC-7721, 72 h) [nM]	HD RP30 (relative inhibitory potency compared with SNDX-275) [3]	GI50 ([1]; 72 hours) [nM]	SGC GI90 ([1]; 72 hours) [nM]	GI50 ([2]; 72 hours) [nM]	SMMC GI90 ([2]; 72 hours) [nM]	Structure (SMILES)
410	1170	750	1870	1.36	–	–	–	–	Nc1ccccc1NC(=O)/C=C/c1ccc(C2CN(C3CCOCC3)CC2C(=O)Nc2ccc(Cl)cc2)cc1 (stereo not shown) [Example 16-2]
290	1240	720	2020	1.51	–	–	–	–	CC(C)N1CC(C(=O)Nc2ccc(F)cc2)C(c2ccc(/C=C/C(=O)Nc3ccccc3N)cc2)C1 (stereo not shown) [Example 16-15]
340	890	700	1620	2.03	–	–	–	–	CC(C)N1CC(C(=O)Nc2ccc(Br)cc2)C(c2ccc(/C=C/C(=O)Nc3ccccc3N)cc2)C1 (stereo not shown) [Example 16-16]
440	1890	900	2450	1.53	–	–	–	–	CC(C)N1CC(C(=O)Nc2ccc(Cl)cc2)C(c2ccc(/C=C/C(=O)Nc3ccccc3N)cc2)C1 (stereo not shown) [Example 16-17]
–	–	–	–	1.90	450	1230	830	2960	Nc1ccccc1NC(=O)/C=C/c1ccc(C2CN(C3CCOCC3)CC2C(=O)Nc2ccc(Cl)cc2)cc1 (stereo not shown) [Example 16-20]
400	1210	800	2520	1.48	–	–	–	–	CCN1CC(C(=O)Nc2ccc(Cl)cc2)C(c2ccc(/C=C/C(=O)Nc3ccccc3N)cc2)C1 (stereo not shown) [Example 21-6]
600	2950	1340	3320	1.47	–	–	–	–	COCCN1CC(C(=O)Nc2ccc(Cl)cc2)C(c2ccc(/C=C/C(=O)Nc3ccccc3N)cc2)C1 (stereo not shown) [Example 21-15]
540	1380	760	2090	1.48	–	–	–	–	CC(C)(O)CN1CC(C(=O)Nc2ccc(Cl)cc2)C(c2ccc(/C=C/C(=O)Nc3ccccc3N)cc2)C1 (stereo not shown) [Example 31-8]
310	1080	650	1840	1.70	–	–	–	–	CC(C)(C)N1CC(C(=O)Nc2ccc(F)cc2)C(c2ccc(/C=C/C(=O)Nc3ccccc3N)cc2)C1 (stereo not shown) [Example 36-5]
490	2010	1440	4520	1.36	–	–	–	–	CN1CC(C(=O)Nc2ccc(F)cc2)C(c2ccc(/C=C/C(=O)Nc3ccccc3N)nc2)C1 (stereo not shown) [Example 73-2]
470	2400	1200	3400	1.84	–	–	–	–	CN1CC(C(=O)Nc2ccc(F)cc2)C(c2ccc(/C=C/C(=O)Nc3ccccc3N)cc2F)C1 (stereo not shown) [Example 85-4]
